Assay results published in US20180110754A1, “CENICRIVIROC FOR THE TREATMENT OF FIBROSIS” (Tobira Therapeutics, Inc., priority 2015, published 2018).

Columns and labels:
[1] = system: STAM mouse model of Non-alcoholic Steatohepatitis; test: STAM mouse model of NASH, week 9 (anti-NASH/fibrosis effects); format: in vivo
Protocol: NASH was induced in male mice by a single injection of 200 μg streptozotocin 2 days after birth (causing impaired glucose control), followed by a high fat diet from 4 weeks of age. […] Animals were sacrificed at 9 weeks of age, and biochemical, gene expression, and histologic evaluations of the liver were conducted.

[2] = system: thioacetamide (TAA)-induced hepatic fibrosis; test: Rat model of thioacetamide-induced liver fibrosis and cirrhosis; format: in vivo, Sprague-Dawley rats; conditions: for Reduction of fibrosis (collagen morphometry): weeks 0-8
Protocol: Fibrosis was induced in male Sprague-Dawley rats by intraperitoneal administration of TAA 150 mg/kg 3 times/week for 8 weeks. […] Biochemical, gene expression and histologic evaluations of the liver were conducted.

[3] = system: STAM mouse model of Non-alcoholic Steatohepatitis (NASH-derived HCC); test: STAM mouse model of NASH, week 18 (anti-HCC effects); conditions: for Mice that died before sacrifice (survival analysis): weeks 6-18
Protocol: Group 1—Vehicle: Eighteen NASH mice were orally administered vehicle at a volume of 10 mL/kg twice daily (9:00 and 19:00) from 6 weeks of age.

[4] = system: RANTES-induced Ca2+ mobilization; test: RANTES-induced Ca2+ mobilization; format: cell-based
Mouse toxicity studies = format: in vivo; conditions: doses up to 2000 mg/kg/day, no surgical procedures
[5] = CVC-low 20 mg/kg/day, week 9, listed as Cenicriviroc
[6] = CVC-high 100 mg/kg/day, week 18
[7] = CVC-high 100 mg/kg/day, week 18, listed as Cenicriviroc
[8] = CVC-low 20 mg/kg/day, week 18, listed as Cenicriviroc

CCCCOCCOc1ccc(-c2ccc3c(c2)/C=C(/C(=O)Nc2ccc([S@@+]([O-])Cc4cncn4CCC)cc2)CCCN3CC(C)C)cc1 [CVC, (S)-8-[4-(2-Butoxyethoxy)phenyl]-1-isobutyl-N-(4-{[(1-propyl-1H-imidazol-5-yl)methyl]sulfinyl}phenyl)-1,2,3,4-tetrahydro-1-benzazocine-5-carboxamide]
F4/80 and CD16/32-positive cells [1, 5]: 38.7 ± 7.6% | F4/80 and CD206-positive cells [1, 5]: 34.7 ± 6.3% | Liver hydroxyproline [1, 5]: 0.63 ± 0.05 μg/mg total protein | Liver triglyceride [1, 5]: 48.5 ± 16.1 mg/g liver | Liver weight [1, 5]: 1334 ± 99 mg | NAFLD Activity Score (NAS) [1, 5]: 4.0 ± 0.6 | Oil red-positive area (fat deposition area) [1, 5]: 6.51 ± 3.88% | Plasma ALT [1, 5]: 58 ± 12 U/L | Plasma MCP-1 [1, 5]: 68 ± 16 pg/mL | Plasma MIP-1β [1, 5]: 18 ± 2 pg/mL | TUNEL-positive cells [1, 5]: 43.3 ± 2.9% | Whole blood glucose [1, 5]: 585 ± 91 mg/dL | Sirius red-positive area (fibrosis area) ([1]; CVC-low 20 mg/kg/day, week 9, perivascular space included, listed as Cenicriviroc): 0.66 ± 0.16% | Modified Sirius red-positive area ([1]; CVC-low 20 mg/kg/day, week 9, perivascular space subtracted, listed as Cenicriviroc): 0.29 ± 0.14% | Number of animals with Hepatocyte ballooning score 1 ([1]; CVC-low, week 9, n=6): 3 | Number of animals with Hepatocyte ballooning score 2 ([1]; CVC-low, week 9, n=6): 3 | Number of animals with Lobular inflammation score 1 ([1]; CVC-low, week 9, n=6): 3 | Number of animals with Lobular inflammation score 2 ([1]; CVC-low, week 9, n=6): 3 | Number of animals with Steatosis score 1 ([1]; CVC-low, week 9, n=6): 6 | Increase in plasma monocyte chemotactic protein-1 levels ([1]; high dose 100 mg/kg/day, week 9): 1.5 fold | Increase in plasma monocyte chemotactic protein-1 levels ([1]; low dose 20 mg/kg/day, week 9): 1.1 fold | Reduction of collagen type 1 protein levels ([2]; Group 1a: 30 mg/kg/day): 30% | Reduction of α-SMA ([2]; Group 1a: 30 mg/kg/day): 17% | Reduction of fibrosis (collagen morphometry) ([2]; Group 1a: 30 mg/kg/day concurrently with TAA): 49% | Reduction of collagen type 1 protein levels ([2]; Group 1b: 100 mg/kg/day): 12% | Reduction of α-SMA ([2]; Group 1b: 100 mg/kg/day): 22% | Reduction of fibrosis (collagen morphometry) ([2]; Group 1b: 100 mg/kg/day concurrently with TAA): 38% | Reduction in collagen ([2]; Group 2a: 30 mg/kg/day, weeks 4-8 (emerging fibrosis)): 36% | Effect on fibrogenic gene expression or fibrosis ([2]; Group 3: weeks 8-12, cirrhosis present): no significant effect | Effect on NASH-derived HCC ([3]; CVC treatment groups, week 18): not observed | Body weight [3, 6]: 20.8 ± 2.7 g | CD31-positive area [3, 6]: 3.68±1.37% | Liver weight [3, 6]: 1817 ± 446 mg | Maximum diameter of visible tumor nodules [3, 6]: 5.3±5.1 mm | Number of visible tumor nodules [3, 6]: 3.6±2.5 | Body weight [3, 7]: 20.8 ± 2.7 g | CD31-positive area [3, 7]: 3.68 ± 1.37% | Liver weight [3, 7]: 1817 ± 446 mg | Maximum diameter of visible tumor nodules [3, 7]: 5.3 ± 5.1 mm | Number of visible tumor nodules [3, 7]: 3.6 ± 2.5 | Mice with GS-positive nodules ([3]; CVC-high, week 18): seven out of seven | Mice with HCC lesions (HE staining) ([3]; CVC-high, week 18): six out of seven | Mice that died before sacrifice (survival analysis) ([3]; CVC-high): Five out of twelve | Body weight ([3]; CVC-low 20 mg/kg/day, week 18): 22.9 ± 3.5 g | CD31-positive area ([3]; CVC-low 20 mg/kg/day, week 18): 1.47±1.10% | Liver weight ([3]; CVC-low 20 mg/kg/day, week 18): 1837 ± 410 mg | Maximum diameter of visible tumor nodules ([3]; CVC-low 20 mg/kg/day, week 18): 4.8±5.4 mm | Number of visible tumor nodules ([3]; CVC-low 20 mg/kg/day, week 18): 1.5±1.9 | Body weight [3, 8]: 22.9 ± 3.5 g | CD31-positive area [3, 8]: 1.47 ± 1.10% | Liver weight [3, 8]: 1837 ± 410 mg | Maximum diameter of visible tumor nodules [3, 8]: 4.8 ± 5.4 mm | Number of visible tumor nodules [3, 8]: 1.5 ± 1.9 | Mice with GS-positive nodules ([3]; CVC-low, week 18): five out of six | Mice with HCC lesions (HE staining) ([3]; CVC-low, week 18): five out of six | Mice that died before sacrifice (survival analysis) ([3]; CVC-low): Six out of twelve | Effect on RANTES-induced Ca2+ mobilization [4]: blocked | Tolerability (Mouse toxicity studies): well tolerated
